Results from ChEMBL document CHEMBL5352461, “Discovery of the novel Benzo[b]thiophene 1,1-dioxide derivatives as a potent STAT3 inhibitor against idiopathic pulmonary fibrosis” (Eur J Med Chem, 2023).
Active and inactive are the calls of the source. The rule behind the calls is not given here.

Assays:
A549 [1] = assay: Antiproliferative activity against TGFbeta-induced human A549 cells assessed as reduction in cell viability at 200 nM incubated for 72 hrs by CCK-8 assay; assay type: functional
NIH3T3 [2] = assay: Antifibrotic activity in TGF-beta1-induced mouse NIH3T3 cells assessed as inhibition of collagen-1 expression at 50 nM incubated for 24 hrs by Western blot analysis; assay type: functional, cell-based
NIH3T3 [3] = assay: Antiproliferative activity against mouse NIH3T3 cells assessed as cell growth inhibition incubated for 24 to 72 hrs by CCK-8 assay; assay type: functional, cell-based
A549 [4] = assay: Inhibition of epithelial-mesenchymal transition in human A549 cells assessed as effect on E-cadherin by measuring fluorescence intensity measured for 24 hrs by immunofluorescence assays; assay type: functional, cell-based
Mus musculus [5] = organism: Mus musculus; assay: Antifibrotic activity against bleomycin-induced C57BL/6 mouse lung fibrosis model assessed as reduction in F4/80+CD11b+ macrophage in lung at high dose incubated for 30 mins by flow cytometry analysis ( Rvb = 17.96%); assay type: functional; design: scale not given: the % may be the effect or the level left; settings: 0.5 h
NIH3T3 [6] = assay: Antiproliferative activity against TGFbeta-induced mouse NIH3T3 cells assessed as cell viability at 6.25 to 100 nM incubated for 24 to 72 hrs by CCK-8 assay; assay type: functional, cell-based; settings: dose 6.25-100 nM, time 24-72 hrs
[7] = Toxicity in C57BL/6 mouse assessed as liver lesion at 60 mg/kg, ip by H and E staining based analysis; assay type: organism-based; settings: in vivo
NIH3T3 [8] = assay: Inhibition of colony formation in mouse NIH3T3 cells assessed as inhibition of cell proliferation incubated for 2 weeks by crystal violet staining based microscopic analysis; assay type: functional; settings: dose <= 100.0 nM
Mus musculus [9] = assay: Antifibrotic activity against bleomycin-induced pulmonary fibrosis C57BL/6 mouse model assessed as reduction in alveolar septa thickness at 60 mg/kg, ip administered for 20 days and measured on 21 day; assay type: functional, organism-based
Mus musculus [10] = organism: Mus musculus; assay: Antifibrotic activity against bleomycin-induced C57BL/6 mouse lung fibrosis model assessed as reduction in CD11c+MHC II+ in dendritic cells in lung at high dose incubated for 30 mins by flow cytometry analysis ( Rvb = 23.67 %); assay type: functional; design: scale not given: the % may be the effect or the level left; settings: 0.5 h
Mus musculus [11] = assay: Antifibrotic activity against bleomycin-induced C57BL/6 mouse lung fibrosis model assessed as prevention of belomycin-induced collagen-1 expression in lung at 60 mg/kg, ip by immunohistochemical staining based analysis; assay type: functional, organism-based
A549 [12] = assay: Induction of morphological changes in TGF-beta1 induced human A549 cells assessed as appearance of spindle shape cells at 200 nM measured for 24 hrs by phase contrast microscopy analysis; assay type: functional, cell-based
Mus musculus [13] = assay: Antifibrotic activity against bleomycin-induced pulmonary fibrosis C57BL/6 mouse model assessed as increase in inter-alveolar space at 60 mg/kg, ip administered for 20 days and measured on 21 day; assay type: functional, organism-based
NIH3T3 [14] = assay: Antifibrotic activity in TGF-beta1-induced mouse NIH3T3 cells assessed as inhibition of STAT3 phosphorylation at 50 nM incubated for 24 hrs by Western blot analysis; assay type: functional, cell-based
[15] = molecular target: Signal transducer and activator of transcription 3 (Mus musculus) (UniProt P42227); assay: Binding affinity to STAT3 in mouse NIH3T3 cells assessed as reduction in protein degradation; assay type: cell-based
NIH3T3 [16] = assay: Antifibrotic activity in TGF-beta1-induced mouse NIH3T3 cells assessed as inhibition of alpha-SMA expression at 50 nM incubated for 24 hrs by Western blot analysis; assay type: functional, cell-based
Mus musculus [17] = organism: Mus musculus; assay: Antifibrotic activity against bleomycin-induced C57BL/6 mouse lung fibrosis model assessed as reduction in CD11c+MHC II+ in dendritic cells in lung at low dose incubated for 30 mins by flow cytometry analysis ( Rvb = 23.67 %); assay type: functional; design: scale not given: the % may be the effect or the level left; settings: 0.5 h
Mus musculus [18] = organism: Mus musculus; assay: Antifibrotic activity against bleomycin-induced C57BL/6 mouse lung fibrosis model assessed as reduction in CD4-CD69+ T cell incubated for 30 mins by flow cytometry analysis; assay type: functional, organism-based
A549 [19] = assay: Inhibition of epithelial-mesenchymal transition in TGF-beta1-induced human A549 cells assessed as effect on E-cadherin by measuring fluorescence intensity at 200 nM incubated for 24 hrs by immunofluorescence assays; assay type: functional, cell-based
Mus musculus [20] = organism: Mus musculus; assay: Antifibrotic activity against bleomycin-induced C57BL/6 mouse lung fibrosis model assessed as reduction in CD11c+MHC II+ in dendritic cells incubated for 30 mins by flow cytometry analysis; assay type: functional, organism-based
Mus musculus [21] = organism: Mus musculus; assay: Antifibrotic activity against bleomycin-induced C57BL/6 mouse lung fibrosis model assessed as reduction in F4/80+CD11b+ macrophage incubated for 30 mins by flow cytometry analysis; assay type: functional, organism-based
[22] = Toxicity in C57BL/6 mouse assessed as spleen lesion at 60 mg/kg, ip by H and E staining based analysis; assay type: organism-based; settings: in vivo
A549 [23] = assay: Inhibition of epithelial-mesenchymal transition in human A549 cells assessed as effect on alpha-SMA by measuring fluorescence intensity measured for 24 hrs by immunofluorescence assays; assay type: functional, cell-based
Mus musculus [24] = assay: Antifibrotic activity against bleomycin-induced C57BL/6 mouse lung fibrosis model assessed as reduction in STAT3 phosphorylation at Ty705 residue in lung at 60 mg/kg, ip by immunohistochemical staining based analysis; assay type: functional, organism-based
Mus musculus [25] = organism: Mus musculus; assay: Antifibrotic activity against bleomycin-induced C57BL/6 mouse lung fibrosis model assessed as reduction in CD4-CD69+ T cell in lung at high dose incubated for 30 mins by flow cytometry analysis ( Rvb = 6.54%); assay type: functional; design: scale not given: the % may be the effect or the level left; settings: 0.5 h
Mus musculus [26] = assay: Antifibrotic activity against bleomycin-induced C57BL/6 mouse lung fibrosis model assessed as inhibition of hydroxyproline content in lung at 60 mg/kg, ip; assay type: functional, organism-based
NIH3T3 [27] = assay: Antiproliferative activity against mouse NIH3T3 cells assessed as cell growth inhibition incubated for 72 hrs by CCK-8 assay; assay type: functional, cell-based; settings: dose 6.25-100 nM
Mus musculus [28] = organism: Mus musculus; assay: Antifibrotic activity against bleomycin-induced C57BL/6 mouse lung fibrosis model assessed as reduction in F4/80+CD11b+ macrophage in lung at low dose incubated for 30 mins by flow cytometry analysis ( Rvb = 17.96%); assay type: functional; design: scale not given: the % may be the effect or the level left; settings: 0.5 h
Mus musculus [29] = assay: Antifibrotic activity against bleomycin-induced C57BL/6 mouse lung fibrosis model assessed as inhibition of hydroxyproline content in lung at 60 mg/kg, ip administered for 7 to 14 days; assay type: functional, organism-based; settings: time 7-14 day
A549 [30] = assay: Inhibition of cell migration in TGF-beta1 induced human A549 cells measured for 24 hrs by contrast-phase microscopic analysis; assay type: functional, cell-based
Mus musculus [31] = assay: Antifibrotic activity against bleomycin-induced C57BL/6 mouse lung fibrosis model assessed as prevention of belomycin-induced alpha-SMA expression in lung at 60 mg/kg, ip by immunohistochemical staining based analysis; assay type: functional, organism-based
[32] = molecular target: Signal transducer and activator of transcription 3 (Homo sapiens) (UniProt P40763); assay: Binding affinity to STAT3 in human A549 cells assessed as reduction in protein degradation; assay type: cell-based
Mus musculus [33] = organism: Mus musculus; assay: Antifibrotic activity against bleomycin-induced C57BL/6 mouse lung fibrosis model assessed as reduction in CD4-CD69+ T cell in lung at low dose incubated for 30 mins by flow cytometry analysis ( Rvb = 6.54%); assay type: functional; design: scale not given: the % may be the effect or the level left; settings: 0.5 h
A549 [34] = assay: Antiproliferative activity against TGFbeta-induced human A549 cells assessed as reduction in cell viability incubated for 72 hrs by CCK-8 assay; assay type: functional, cell-based; settings: dose 25-400 nM
[35] = Toxicity in C57BL/6 mouse assessed as heart lesion at 60 mg/kg, ip by H and E staining based analysis; assay type: organism-based; settings: in vivo
[36] = Toxicity in C57BL/6 mouse assessed as kidney lesion at 60 mg/kg, ip by H and E staining based analysis; assay type: organism-based; settings: in vivo
A549 [37] = assay: Inhibition of epithelial-mesenchymal transition in TGF-beta1-induced human A549 cells assessed as effect on alpha-SMA by measuring fluorescence intensity at 200 nM incubated for 24 hrs by immunofluorescence assays; assay type: functional, cell-based

Chain of Signal transducer and activator of transcription 3 (Homo sapiens) (P40763 whole entry): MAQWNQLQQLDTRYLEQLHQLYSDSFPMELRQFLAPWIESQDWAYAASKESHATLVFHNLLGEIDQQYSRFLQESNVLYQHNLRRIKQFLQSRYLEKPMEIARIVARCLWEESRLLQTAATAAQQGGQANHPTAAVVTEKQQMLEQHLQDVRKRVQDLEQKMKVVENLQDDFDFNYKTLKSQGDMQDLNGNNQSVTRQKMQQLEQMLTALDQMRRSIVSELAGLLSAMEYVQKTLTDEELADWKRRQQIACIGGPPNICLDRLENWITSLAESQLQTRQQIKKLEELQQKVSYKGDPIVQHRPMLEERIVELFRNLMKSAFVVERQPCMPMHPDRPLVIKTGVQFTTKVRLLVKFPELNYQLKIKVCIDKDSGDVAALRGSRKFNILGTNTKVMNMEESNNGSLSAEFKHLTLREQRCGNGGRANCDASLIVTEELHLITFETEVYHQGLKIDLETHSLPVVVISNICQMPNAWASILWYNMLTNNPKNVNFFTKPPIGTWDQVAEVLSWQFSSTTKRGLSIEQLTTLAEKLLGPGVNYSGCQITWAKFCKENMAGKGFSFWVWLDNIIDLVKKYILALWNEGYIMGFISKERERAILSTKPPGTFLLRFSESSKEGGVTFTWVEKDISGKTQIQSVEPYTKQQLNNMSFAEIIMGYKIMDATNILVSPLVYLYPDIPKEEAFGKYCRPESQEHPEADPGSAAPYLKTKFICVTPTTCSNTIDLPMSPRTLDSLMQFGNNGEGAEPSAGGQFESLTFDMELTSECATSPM
Chain of Signal transducer and activator of transcription 3 (Mus musculus) (P42227 whole entry): as the sequence (P40763 whole entry) above, with E760D counted along it

In the case of `O=C(C1=Cc2ccccc2S1(=O)=O)N1CCN(Cc2cc(F)c(F)cc2F)CC1`, the Activity (A549 [1]) is reported as 50%, the Activity (NIH3T3 [2]) is reported as “Active” and the IC50 (NIH3T3 [3]) is reported as 470 nM. For the same compound, the inhibition (A549 [4]) was “Active”, the Activity (Mus musculus [5]) was 10.45% and the Activity (NIH3T3 [6]) was “Active”. The Activity [7] was “Non-Toxic”, the inhibition (NIH3T3 [8]) was “Dose-Dependent Effect” and the Activity (Mus musculus [9]) was “Active”. For the same compound, the Activity (Mus musculus [10]) was 9.28%, the Activity (Mus musculus [11]) was “Active” and the Activity (A549 [12]) was “Active”. The Activity (Mus musculus [13]) was “Active”, the Activity (NIH3T3 [14]) was “Active” and the Activity [15] was “Active”. The Activity (NIH3T3 [16]) was “Active”, the Activity (Mus musculus [17]) was 12.37% and the Activity (Mus musculus [18]) was “Active”. The inhibition (A549 [19]) was “Active”, the Activity (Mus musculus [20]) was “Active” and the Activity (Mus musculus [21]) was “Active”. The Activity [22] was “Non-Toxic”, the inhibition (A549 [23]) was “Active” and the Activity (Mus musculus [24]) was “Active”. For the same compound, the Activity (Mus musculus [25]) was 2.84%, the Activity (Mus musculus [26]) was “Active” and the Activity (NIH3T3 [27]) was “Dose-Dependent Effect”. For the same compound, the Activity (Mus musculus [28]) was 6.93%, the Activity (Mus musculus [29]) was “Active” and the inhibition (A549 [30]) was “Active”. For the same compound, the Activity (Mus musculus [31]) was “Active”, the Activity [32] was “Active” and the Activity (Mus musculus [33]) was 0.65%. The Activity (A549 [34]) was “Dose-Dependent Effect”, the Activity [35] was “Non-Toxic” and the Activity [36] was “Non-Toxic”. The inhibition (A549 [37]) was “Active”.
